Source: patent US8952024B2, “Herbicidal pyrimidone derivatives” (E I du Pont de Nemours and Company, priority 2009, dated 2015)

Assays:
Format in all cases: in vivo
[1] = tested on: cocklebur (Xanthium strumarium); test: Test B pre-/postemergence plant response; details: for Cocklebur plant response rating (0 to 100 scale): 62 g ai/ha, 0 is no effect, 13 to 15 days
Outline: (§1)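 Seeds were sown in loam soil/sand blend and treated preemergence with compound in non-phytotoxic solvent mixture containing surfactant; postemergence sprays, same formulation, went onto plants 2 to 18 cm (1- to 4-leaf stage) in peat-based planting medium. Greenhouse 13 to 15 days, then visual rating versus untreated controls, 0 (no effect) to 100 (complete control).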

[2] = tested on: corn (Zea mays); test: Test B pre-/postemergence plant response; details: for Corn plant response rating (0 to 100 scale): 0 is no effect, 13 to 15 days
Outline: as §1

[3] = tested on: morningglory (Ipomoea coccinea); test: Test B pre-/postemergence plant response; details: for Morningglory plant response rating (0 to 100 scale): 0 is no effect, 13 to 15 days
Outline: as §1

[4] = tested on: bermudagrass (Cynodon dactylon); test: Test B pre-/postemergence plant response; details: for Bermudagrass plant response rating (0 to 100 scale): 0 is no effect, 13 to 15 days
Outline: as §1

[5] = tested on: ragweed (common ragweed, Ambrosia elatior); test: Test B pre-/postemergence plant response; details: for Ragweed plant response rating (0 to 100 scale): postemergence, 0 is no effect, 100 is complete control, 13 to 15 days
Outline: as §1

[6] = tested on: Surinam grass (Brachiaria decumbens); test: Test B pre-/postemergence plant response; details: for Surinam Grass plant response rating (0 to 100 scale): postemergence, 0 is no effect, 100 is complete control, 13 to 15 days
Outline: as §1

[7] = tested on: Italian ryegrass (Lolium multiflorum); test: Test B pre-/postemergence plant response; details: for Ryegrass, Italian plant response rating (0 to 100 scale): postemergence, 0 is no effect, 100 is complete control, 13 to 15 days
Outline: as §1

[8] = tested on: blackgrass (Alopecurus myosuroides); test: Test B pre-/postemergence plant response; details: for Blackgrass plant response rating (0 to 100 scale): 0 is no effect, 13 to 15 days
Outline: as §1

[9] = tested on: soybean (Glycine max); test: Test B pre-/postemergence plant response; details: for Soybean plant response rating (0 to 100 scale): postemergence, 0 is no effect, 100 is complete control, 13 to 15 days
Outline: as §1

[10] = tested on: ducksalad (Heteranthera limosa); test: Test B flooded paddy test; details: for Plant response rating, Flood, Ducksalad: 250 g ai/ha, flooded paddy test, visual rating on 0 to 100 scale (0 no effect, 100 complete control) after 13 to 15 days; for Plant response rating, Ducksalad: Flood (flooded paddy test), 62 g ai/ha, scale of 0 to 100 where 0 is no effect and 100 is complete control, 13 to 15 days
Outline: (§2)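 Plants were grown to the 2-leaf stage, then pots were flooded to 3 cm above the soil and compounds were applied directly into the paddy water. That depth was held throughout. After 13 to 15 days in a greenhouse, injury was visually rated against controls on a 0–100 scale.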

[11] = tested on: rice (Oryza sativa); test: Test B flooded paddy test; details: for Plant response rating, Flood, Rice: 250 g ai/ha, flooded paddy test, visual rating on 0 to 100 scale (0 no effect, 100 complete control) after 13 to 15 days; for Plant response rating, Rice: Flood (flooded paddy test), 62 g ai/ha, scale of 0 to 100 where 0 is no effect and 100 is complete control, 13 to 15 days
Outline: as §2

[12] = tested on: umbrella sedge (Cyperus difformis); test: Test B flooded paddy test; details: for Plant response rating, Flood, Sedge, Umbrella: 250 g ai/ha, flooded paddy test, visual rating on 0 to 100 scale (0 no effect, 100 complete control) after 13 to 15 days; for Plant response rating, Sedge, Umbrella: Flood (flooded paddy test), 62 g ai/ha, scale of 0 to 100 where 0 is no effect and 100 is complete control, 13 to 15 days
Outline: as §2

[13] = tested on: barnyardgrass (Echinochloa crus-galli); test: Test B flooded paddy test; details: for Plant response rating, Flood, Barnyardgrass: 250 g ai/ha, flooded paddy test, visual rating on 0 to 100 scale (0 no effect, 100 complete control) after 13 to 15 days; for Plant response rating, Barnyardgrass: Flood (flooded paddy test), 62 g ai/ha, scale of 0 to 100 where 0 is no effect and 100 is complete control, 13 to 15 days
Outline: as §2

[14] = 31 g ai/ha, postemergence, scale 0 to 100, 0 is no effect, 100 is complete control
[15] = postemergence, 100 is complete control
[16] = Postemergence, 125 g ai/ha, scale 0 to 100 (0 no effect, 100 complete control)
[17] = Postemergence, 250 g ai/ha, scale 0 to 100 (0 no effect, 100 complete control)
[18] = 62 g ai/ha, postemergence, 100 is complete control
[19] = Preemergence, 31 g ai/ha, scale 0 to 100 (0 no effect, 100 complete control)
[20] = Preemergence, 125 g ai/ha, scale 0 to 100, 0 no effect, 100 complete control
[21] = Preemergence, 250 g ai/ha, 0 to 100 scale
[22] = Preemergence, 62 g ai/ha, scale 0 to 100 (0 no effect, 100 complete control)

COCCn1c(-c2cccc(C)c2)ncc(C(=O)C2=C(O)CCCC2=O)c1=O [Compound 117]
Plant response rating, Cocklebur [1, 14]: 75 | Cocklebur plant response rating (0 to 100 scale) [1, 15]: 75 | Plant response rating, Cocklebur [1, 16]: 98 | Plant response rating, Cocklebur [1, 17]: 100 | Plant response rating, Corn [2, 14]: 10 | Corn plant response rating (0 to 100 scale) [2, 18]: 15 | Plant response rating, Corn [2, 16]: 25 | Plant response rating, Corn [2, 17]: 25 | Plant response rating, Morningglory [3, 14]: 10 | Morningglory plant response rating (0 to 100 scale) [3, 18]: 75 | Plant response rating, Morningglory [3, 16]: 80 | Plant response rating, Morningglory [3, 17]: 100 | Plant response rating, Bermudagrass [4, 14]: 75 | Bermudagrass plant response rating (0 to 100 scale) [4, 18]: 90 | Plant response rating, Bermudagrass [4, 16]: 95 | Plant response rating, Bermudagrass [4, 17]: 100 | Ragweed plant response rating (0 to 100 scale) ([5]; 62 g ai/ha): 75 | Plant response rating, Ragweed [5, 16]: 90 | Plant response rating, Ragweed [5, 17]: 98 | Surinam Grass plant response rating (0 to 100 scale) ([6]; 62 g ai/ha): 75 | Plant response rating, Surinam Grass [6, 17]: 85 | Ryegrass, Italian plant response rating (0 to 100 scale) ([7]; 62 g ai/ha): 10 | Plant response rating, Ryegrass, Italian [7, 16]: 15 | Plant response rating, Ryegrass, Italian [7, 17]: 50 | Plant response rating, Blackgrass [8, 14]: 0 | Blackgrass plant response rating (0 to 100 scale) [8, 18]: 10 | Plant response rating, Blackgrass [8, 16]: 40 | Plant response rating, Blackgrass [8, 17]: 40 | Soybean plant response rating (0 to 100 scale) ([9]; 62 g ai/ha): 80 | Plant response rating, Soybean [9, 16]: 95 | Plant response rating, Soybean [9, 17]: 95 | Plant response rating, Flood, Ducksalad [10]: 100 | Plant response rating, Flood, Rice [11]: 15 | Plant response rating, Rice [11]: 0 | Plant response rating, Flood, Sedge, Umbrella [12]: 95 | Plant response rating, Sedge, Umbrella [12]: 95 | Plant response rating, Flood, Barnyardgrass [13]: 75 | Plant response rating, Barnyardgrass [13]: 65

COCCCn1c(-c2cccc(C)c2)ncc(C(=O)C2=C(O)CCCC2=O)c1=O [Compound 118, 5-[(2-hydroxy-6-oxo-1-cyclohexane-1-yl)carbonyl]-3-(3-methoxypropyl)-2-(3-methylphenyl)-4(3H)-pyrimidinone]
Plant response rating, Cocklebur [1, 14]: 40 | Cocklebur plant response rating (0 to 100 scale) [1, 15]: 40 | Plant response rating, Cocklebur [1, 16]: 85 | Plant response rating, Cocklebur [1, 17]: 98 | Plant response rating, Corn [2, 14]: 0 | Corn plant response rating (0 to 100 scale) [2, 18]: 0 | Plant response rating, Corn [2, 16]: 20 | Plant response rating, Corn [2, 17]: 25 | Plant response rating, Morningglory [3, 14]: 10 | Morningglory plant response rating (0 to 100 scale) [3, 18]: 60 | Plant response rating, Morningglory [3, 16]: 70 | Plant response rating, Morningglory [3, 17]: 80 | Plant response rating, Bermudagrass [4, 14]: 75 | Bermudagrass plant response rating (0 to 100 scale) [4, 18]: 95 | Plant response rating, Bermudagrass [4, 16]: 98 | Plant response rating, Bermudagrass [4, 17]: 98 | Ragweed plant response rating (0 to 100 scale) ([5]; 62 g ai/ha): 85 | Plant response rating, Ragweed [5, 16]: 95 | Plant response rating, Ragweed [5, 17]: 98 | Plant response rating, Surinam Grass [6, 16]: 75 | Plant response rating, Surinam Grass [6, 17]: 90 | Ryegrass, Italian plant response rating (0 to 100 scale) ([7]; 62 g ai/ha): 5 | Plant response rating, Ryegrass, Italian [7, 16]: 5 | Plant response rating, Ryegrass, Italian [7, 17]: 60 | Plant response rating, Blackgrass [8, 14]: 5 | Blackgrass plant response rating (0 to 100 scale) [8, 18]: 10 | Plant response rating, Blackgrass [8, 16]: 35 | Plant response rating, Blackgrass [8, 17]: 40 | Soybean plant response rating (0 to 100 scale) ([9]; 62 g ai/ha): 90 | Plant response rating, Soybean [9, 16]: 95 | Plant response rating, Soybean [9, 17]: 100 | Plant response rating, Flood, Ducksalad [10]: 100 | Plant response rating, Ducksalad [10]: 100 | Plant response rating, Flood, Rice [11]: 15 | Plant response rating, Rice [11]: 0 | Plant response rating, Flood, Sedge, Umbrella [12]: 85 | Plant response rating, Sedge, Umbrella [12]: 70 | Plant response rating, Flood, Barnyardgrass [13]: 70 | Plant response rating, Barnyardgrass [13]: 50

COCCn1c(-c2cc(F)cc(F)c2)ncc(C(=O)C2=C(O)CCCC2=O)c1=O [Compound 119]
Plant response rating, Cocklebur [1, 14]: 0 | Cocklebur plant response rating (0 to 100 scale) [1, 15]: 10 | Plant response rating, Cocklebur [1, 16]: 80 | Plant response rating, Cocklebur [1, 17]: 95 | Plant response rating, Cocklebur [1, 19]: 0 | Plant response rating, Cocklebur [1, 20]: 70 | Cocklebur plant response rating [1, 21]: 85 | Plant response rating, Corn [2, 14]: 20 | Corn plant response rating (0 to 100 scale) [2, 18]: 45 | Plant response rating, Corn [2, 16]: 60 | Plant response rating, Corn [2, 17]: 70 | Plant response rating, Corn [2, 19]: 0 | Plant response rating, Corn [2, 22]: 40 | Plant response rating, Corn [2, 20]: 50 | Corn plant response rating [2, 21]: 50 | Plant response rating, Morningglory [3, 14]: 10 | Morningglory plant response rating (0 to 100 scale) [3, 18]: 60 | Plant response rating, Morningglory [3, 16]: 95 | Plant response rating, Morningglory [3, 17]: 95 | Plant response rating, Morningglory [3, 19]: 60 | Plant response rating, Morningglory [3, 22]: 95 | Plant response rating, Morningglory [3, 20]: 95 | Morningglory plant response rating [3, 21]: 95 | Plant response rating, Bermudagrass [4, 14]: 75 | Bermudagrass plant response rating (0 to 100 scale) [4, 18]: 98 | Plant response rating, Bermudagrass [4, 16]: 98 | Plant response rating, Bermudagrass [4, 17]: 98 | Plant response rating, Bermudagrass [4, 19]: 100 | Plant response rating, Bermudagrass [4, 22]: 100 | Plant response rating, Bermudagrass [4, 20]: 100 | Bermudagrass plant response rating ([4]; Preemergence, 250 g ai/ha, 0 to 100 scale, 0 no effect, 100 complete control): 100 | Ragweed plant response rating (0 to 100 scale) ([5]; 62 g ai/ha): 75 | Plant response rating, Ragweed [5, 16]: 95 | Plant response rating, Ragweed [5, 17]: 98 | Plant response rating, Ragweed [5, 19]: 80 | Plant response rating, Ragweed [5, 22]: 80 | Plant response rating, Ragweed [5, 20]: 95 | Ragweed plant response rating [5, 21]: 95 | Surinam Grass plant response rating (0 to 100 scale) ([6]; 62 g ai/ha): 85 | Plant response rating, Surinam Grass [6, 16]: 95 | Plant response rating, Surinam Grass [6, 17]: 98 | Plant response rating, Surinam Grass [6, 19]: 90 | Plant response rating, Surinam Grass [6, 22]: 98 | Plant response rating, Surinam Grass [6, 20]: 100 | Surinam Grass plant response rating [6, 21]: 100 | Ryegrass, Italian plant response rating (0 to 100 scale) ([7]; 62 g ai/ha): 30 | Plant response rating, Ryegrass, Italian [7, 16]: 60 | Plant response rating, Ryegrass, Italian [7, 17]: 85 | Plant response rating, Ryegrass, Italian [7, 19]: 100 | Plant response rating, Ryegrass, Italian [7, 22]: 100 | Plant response rating, Ryegrass, Italian [7, 20]: 100 | Ryegrass, Italian plant response rating [7, 21]: 100 | Plant response rating, Blackgrass [8, 14]: 5 | Blackgrass plant response rating (0 to 100 scale) [8, 18]: 20 | Plant response rating, Blackgrass [8, 16]: 50 | Plant response rating, Blackgrass [8, 17]: 50 | Plant response rating, Blackgrass [8, 19]: 30 | Plant response rating, Blackgrass [8, 22]: 30 | Plant response rating, Blackgrass [8, 20]: 50 | Blackgrass plant response rating [8, 21]: 70 | Soybean plant response rating (0 to 100 scale) ([9]; 62 g ai/ha): 50 | Plant response rating, Soybean [9, 16]: 60 | Plant response rating, Soybean [9, 17]: 80 | Plant response rating, Soybean [9, 19]: 10 | Plant response rating, Soybean [9, 22]: 55 | Plant response rating, Soybean [9, 20]: 80 | Soybean plant response rating [9, 21]: 80 | Plant response rating, Flood, Ducksalad [10]: 70 | Plant response rating, Ducksalad [10]: 30 | Plant response rating, Flood, Rice [11]: 35 | Plant response rating, Rice [11]: 20 | Plant response rating, Flood, Sedge, Umbrella [12]: 75 | Plant response rating, Sedge, Umbrella [12]: 25 | Plant response rating, Flood, Barnyardgrass [13]: 50 | Plant response rating, Barnyardgrass [13]: 30
